Data taken from US7875587B2, “Peptide analogues of GIP for treatment of diabetes, insulin resistance and obesity” (UUTECH Limited, priority 2004, dated 2011).
No end group written: not given here.

Key:
normal mice = experiment: Chronic (11 days) (Pro3)GIP administration in normal mice; type: in vivo, mouse
Method: Effects of chronic (Pro^3)GIP administration on plasma glucose, insulin and glycated HbA1c in obese diabetic ob/ob mice and normal mice. Obese diabetic ob/ob mice and normal control mice aged 8-12 weeks were randomly divided into groups which received once daily subcutaneous injections (17:00 h) of either saline (0.9% w/v NaCl) or (Pro^3)GIP (25 nmol/kg body weight in saline). After 11 days, treatment was ceased. Food intake and body weight were recorded daily. Blood samples were collected from the cut tip of the tail of conscious mice into chilled fluoride/heparin coated glucose microcentrifuge tubes (Sarstedt, Numbrecht, Germany). Blood samples were immediately centrifuged using a Beckman microcentrifuge (Beckman Instruments, UK) for 30 seconds at 13000 g prior to glucose, insulin and HbA1c determinations.
Effects of chronic treatment with (Pro^3)GIP on glucose tolerance in ob/ob mice and normal mice. Plasma glucose and insulin concentrations were measured following intraperitoneal administration of glucose (18 mmol/kg body weight) in ob/ob and normal mice treated with either saline (0.9% w/v NaCl) or (Pro^3)GIP (25 nmol/kg body weight/day) for 11 days. […]
Determination of HbA1c, plasma glucose and insulin concentrations. HbA1c was measured in whole blood by ion-exchange high-performance liquid chromatography using the Menari HA-8140 kit (BIOMEN, Berkshire, UK). […]

ob/ob mice = experiment: Once daily i.p. (Pro3)GIP over 11 days in ob/ob mice (Example 5); type: in vivo, mouse
Method: Animals. Obese diabetic (ob/ob) mice derived from the colony maintained at Aston University, UK (Bailey, C. J., et al., 1982, Int. J. Obes. 6:11-21) were used at 12-16 weeks of age. Animals were age-matched, divided into groups and housed individually in an air-conditioned room at 22±2° C. with a 12 hour light: 12 hour dark cycle. Drinking water and a standard rodent maintenance diet (Trouw Nutrition, Cheshire, UK) were freely available. All animal experiments were carried out in accordance with the UK Animals (Scientific Procedures) Act 1986.
Experimental protocols for ob/ob mouse studies. Initially, extended biological activity of (Pro^3)GIP was examined in 18-hour fasted ob/ob mice 4 hours after administration. Thereafter, over an 11-day period, mice received once daily i.p. injections (17:00 hours) of either saline vehicle (0.9% (w/v), NaCl) or (Pro^3)GIP (25 nmol/kg body wt). During a subsequent 9-day period, observations were continued following discontinuation of (Pro^3)GIP administration. Food intake and body weight were recorded daily whilst plasma glucose and insulin concentrations were monitored at intervals of 2-6 days. Whole blood for the measurement of glycated hemoglobin was taken on days 11 and 20. Intraperitoneal glucose tolerance (18 mmol/kg body wt), metabolic response to native GIP (25 nmol/kg body wt) and insulin sensitivity (50 U/kg body wt) tests were performed on days 11 and 20. Mice fasted for 18 hours were used to examine the metabolic response to 15 minutes feeding. In a separate series, pancreatic tissues were excised at the end of the 11-day treatment period or 9 days following discontinuation of (Pro^3)GIP and processed for immunohistochemistry or measurement of insulin following extraction with 5 ml/g of ice-cold acid ethanol (750 ml ethanol, 235 ml water, 15 ml concentrated HCl). Blood samples taken from the cut tip of the tail vein of conscious mice at the times indicated in the Figures were immediately centrifuged using a Beckman microcentrifuge (Beckman Instruments, UK) for 30 seconds at 13,000 g. The resulting plasma was then aliquoted into fresh Eppendorf tubes and stored at −20° C. prior to glucose and insulin determinations.
Biochemical analysis. Plasma glucose was assayed by an automated glucose oxidase procedure (Stevens, J. F., 1971, Clin. Chem. Acta 32:199-201) using a Beckman Glucose Analyzer II (Beckman Instruments, Galway, Ireland). Plasma and pancreatic insulin were assayed by a modified dextran-coated charcoal radioimmunoassay (Flatt, P. R. et al., 1981, Diabetologia 20:573-577). Glycated hemoglobin was determined using cation-exchange columns (Sigma, Poole, Dorset, UK) with measurement of absorbance (415 nm) in wash and eluting buffer using a VersaMax Microplate Spectrophotometer (Molecular Devices, Wokingham, Berkshire, UK).
Immunocytochemistry. Tissue fixed in 4% paraformaldehyde/PBS and embedded in paraffin was sectioned at 8 μm. After de-waxing, sections were incubated with blocking serum (Vector Laboratories, Calif., USA) prior to exposure to insulin antibody. Tissue samples were then incubated consecutively with secondary biotinylated universal, pan-specific antibody (Vector Laboratories, Calif., USA) and streptavidin/peroxidase preformed complex (Vector Laboratories, Calif., USA). Following washing, the stained pancreatic tissue was counterstained with hematoxylin (BDH Chemicals, Dorset, UK) and then plunged into acid methanol (500 ml methanol, 500 ml H2O and 2.5 ml concentrated HCl) prior to dehydration and mounting in Depex (BDH Chemicals, Dorset, UK). The stained slides were viewed under a microscope (Nikon Eclipse E2000, Diagnostic Instruments Incorporated, Michigan, USA) attached to a JVC camera Model KY-F55B (JVC, London, UK) and analyzed using Kromoscan imaging software (Kinetic Imaging Limited, Faversham, Kent, UK). […]

[1] = 4 hours after 25 nmoles/kg, 18 h fasted, vs saline

## YAPGTFISDYSIAMDKIHQQDFVNWLLAQKGKKNDWKHNITQ [(Pro^3)GIP]
Normal mice; 9 days after cessation of treatment
  glucose tolerance in normal mice after cessation: reversed 9 days after cessation of treatment
Normal mice; daily treatment for 11 days
  glucose tolerance in normal mice: marked deterioration of glucose tolerance
ob/ob mice; 25 nmol/kg/day i.p., 11 days, vs controls
  reduction of non-fasting plasma glucose levels: 1.6 fold
ob/ob mice; 25 nmol/kg/day i.p., 11 days, vs controls (abstract of Example 5)
  reduction of overall glycemic excursion (AUC) to a glucose load: 1.6 fold
ob/ob mice; [1]
  decrease of AUC insulin in response to native GIP with glucose: 25%
  increase of AUC glucose in response to native GIP with glucose: 151%
ob/ob mice; 9 days following cessation of daily injection
  glycated hemoglobin: 7.7±0.4%
ob/ob mice; 11 days treatment
  average islet diameter: markedly and significantly reduced
  enhancement of insulin sensitivity: 1.6 fold
  islet number per pancreatic section: No significant differences
  lowering of overall plasma glucose response to feeding: 1.4 fold
  lowering of overall plasma insulin response to feeding: 1.5 fold
  pancreatic weight: no effect
  plasma insulin AUC 0-60 minutes after i.p. glucose: significantly decreased
  reduction of pancreatic insulin content: 1.3 fold
ob/ob mice; 11 days treatment, glucose 18 mmoles/kg, vs controls
  reduction of plasma glucose AUC 0-60 minutes after i.p. glucose: 2.1 fold
ob/ob mice; 11 days treatment, insulin 50 U/kg i.p.
  hypoglycemic action of insulin (AUC and post injection values): significantly (P<0.05) augmented
ob/ob mice; 11 days treatment, vs controls
  pancreatic insulin content: significantly (P<0.05) decreased
ob/ob mice; after 11 days treatment
  glycated hemoglobin: 6.9±0.2%
ob/ob mice; before treatment
  glycated hemoglobin: 8.0±0.3%
ob/ob mice; daily 25 nmol/kg, 11 days
  body weight: no effect
  food intake: no effect
ob/ob mice; day 11
  non-fasting plasma glucose: significantly reduced
ob/ob mice; during or after the treatment period
  plasma insulin levels: No significant changes
ob/ob mice; following administration to ob/ob mice
  adverse effects: No adverse effects were observed
ob/ob mice; insulin sensitivity test after 11 days
  increase in the glucose-lowering action of exogenous insulin: 57%
